Where two headings read alike, the source gives them in different places.
Columns and labels:
[1] = Cytotoxicity assay in A2780 (MTT); assay type: cell-based; conditions: human, A2780 cells, read-out: A2780 inhibition (CC50)
Experimental: (§2) THP-1 human acute monocytic leukemia cells and NCI-H460 human lung carcinoma cells were grown in RPMI supplemented with 10% FBS. Hep-G2 human hepatocellular carcinoma cells were cultured in Eagle’s minimum essential medium (EMEM) supplemented with 10% FBS. A2780 human ovarian carcinoma cells were grown in RPMI supplemented with 10% FBS and 2 mM L-glutamine. MCF-7 human breast adenocarcinoma cells were cultured in EMEM containing 2 mM L-glutamine and Earle’s balanced salt solution adjusted with 1.5 g/L sodium bicarbonate, 0.1 mM non-essential amino acids, and 1 mM sodium pyruvate and supplemented with 10% FBS. […] Except for Caco-2 and HUVEC, inhibition of cell growth was evaluated using a protocol based on monitoring the transformation into formazan of the tetrazolium salt of MTT (3-(4,5-dimethylthiazol-2-yl)-2,5-diphenyltretrazolium bromide) by metabolically active cells. […] After 96 further h of incubation in the same conditions, 10 µL of a 5 mg/mL MTT solution in PBS was added to each sample, and the incubation was resumed for another 4 h. […] The absorbance measurement range was framed between one sample containing 4000 cells in plain growth medium (to determine the stable cell concentration) and another sample containing an equal cell number in growth medium supplemented with growth factors (to measure the maximum cell growth at 96 h).

[2] = cited from earlier work
LYWIYY peptide = assay: Transmission electron microscopy of peptide aggregation; assay type: biochemical, Plasmodium falciparum; conditions: 100 nM, 25 µM peptide, 24 h after disaggregation
Experimental: To disaggregate peptides before the assay, 1 mg of lyophilized peptide was dissolved in 1 mL of trifluoroacetic acid (TFA), which, after thoroughly mixing, was evaporated under a N2 stream, and 500 µL of 1,1,1,3,3,3-hexafluoro-2-propanol (HFIP; Honeywell Fluka-Thermo Fisher Scientific, Inc.) were added, mixed well, and evaporated as mentioned before (repeated twice to fully remove TFA). Then, 500 µL of HFIP was added, and the solution was divided into aliquots and placed in a desiccator overnight. Afterward, 500 µL of PBS was added to each aliquot to have a final peptide concentration of 25 µM, and, to ensure minimal aggregation (t0), the samples were sonicated for 10 min in a water bath sonicator (FB15053 ultrasonic bath, Thermo Fisher Scientific, Inc.). To study the effect of YAT2150 on peptide aggregation, the compound was added at a final concentration of 100 nM and incubated for 24 h at 37 °C under stirring at 1400 rpm (t24). For disaggregation analysis, a 25 µM peptide aliquot was first pre-aggregated for 24 h (37 °C, 1400 rpm); after this time, YAT2150 was added at a final concentration of 100 nM, and the samples were incubated for an additional 24 h in the same conditions (t48). Control samples in the absence of YAT2150 were included. A 5-μL drop of each sample was deposited onto a carbon-coated copper grid (Ted Pella, Redding, CA, USA) for 1 h. […]

[3] = cited from earlier work; remark: listed apart in the source
[4] = Cytotoxicity assay in MCF7 (MTT); assay type: cell-based; conditions: human, MCF-7 cells, read-out: MCF7 inhibition (CC50)
Experimental: as §2

CYP3A4 = CYP3A4 (Homo sapiens, UniProt P08684); assay: in vitro; conditions: microsomes
CYP3A4, sequence (P08684 whole entry): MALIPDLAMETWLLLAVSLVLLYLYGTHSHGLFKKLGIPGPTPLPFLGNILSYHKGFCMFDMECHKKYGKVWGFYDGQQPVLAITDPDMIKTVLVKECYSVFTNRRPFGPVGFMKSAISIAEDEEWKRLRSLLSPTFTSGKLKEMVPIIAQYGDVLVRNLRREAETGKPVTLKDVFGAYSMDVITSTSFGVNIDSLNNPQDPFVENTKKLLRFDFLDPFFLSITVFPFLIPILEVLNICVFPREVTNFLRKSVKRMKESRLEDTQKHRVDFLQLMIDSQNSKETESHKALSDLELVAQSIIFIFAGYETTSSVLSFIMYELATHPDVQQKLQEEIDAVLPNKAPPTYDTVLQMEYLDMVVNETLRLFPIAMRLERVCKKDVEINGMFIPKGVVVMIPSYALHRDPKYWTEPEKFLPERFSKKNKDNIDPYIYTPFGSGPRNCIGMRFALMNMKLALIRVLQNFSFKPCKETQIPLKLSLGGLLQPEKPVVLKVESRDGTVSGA

[5] = tested on: P. berghei oocysts in A. gambiae mosquitoes; assay: Membrane blood feeding assay (oocyst production in mosquitoes); assay type: in vivo, Plasmodium berghei; conditions: 10 µM in blood meal; 7 days
Experimental: The Anopheles gambiae mosquito G3 strain was reared under standard conditions at 28 °C and 80% humidity. One to two days before blood feeding, the mosquitoes were fed penicillin (20 U/mL) and streptomycin (20 μg/mL) in the sugar meal (10% sucrose). Mice were infected with the P. berghei mutant Bergreen, which constitutively expresses GFP [18]. Blood was obtained by heart puncture of one mouse, and aliquoted in two tubes that were immediately placed at 37 °C. YAT2150 at a final concentration of 10 µM diluted from a stock solution in dimethyl sulfoxide (DMSO) was added to one tube. The control tube contained the same concentration of DMSO (0.5%). After the feeding carried out in membrane feeders for 60 min, mosquitoes were kept at 19 °C and provided with sugar meal containing the antibiotics as above. Seven days after feeding, the mosquitoes were dissected in PBS, mounted in […]®, and GFP-positive oocysts were counted under an Axioskop 2 microscope (Zeiss, Oberkochen, Germany).

C. elegans = assay: In vivo toxicity in C. elegans; parameters: species or system Caenorhabditis elegans; conditions: non-encapsulated, 50 µM
Experimental: (§1) The Caenorhabditis elegans N2 Bristol strain (kindly provided by Dr. Christian Griñán-Ferré) was cultured, following established methods, in 90 mm Petri dishes containing solid Nematode Growth Media (NGM) seeded with E. coli OP50 (100 µL of an overnight culture spread on top of the NGM), maintained at 20 °C, and expanded to new plates once a week by transferring a 1-cm^3 NGM cube to a new plate. […] To do this, a plate with gravid adult worms was washed twice with 5 mL of M9 buffer (20 mM KH2PO4, 42 mM Na2HPO4, 86 mM NaCl, 1 mM MgSO4), and the nematodes were transferred to a 15-mL conical tube, where they were pelleted (400× g, 2 min). […] C. elegans viability and body length were analyzed after 48 h under a stereomicroscope (Leica M50 Routine Stereo Microscope; Leica Microsystems GmbH), taking representative images and videos with a 4× objective. C. elegans viability was determined in three experimentally independent replicas according to two variables: body shape (stiff, rod-like worms were counted as dead, as opposite to s-shaped live worms) and presence of movement in living C. elegans, with an n ≥ 100 worms/sample. Nematode body length was calculated with ImageJ software in worms anesthetized with 50 mM sodium azide. Statistically significant differences between groups were determined by the two-way analysis of variance (ANOVA) using GraphPad Prism 9.0.1.

[6] = In vivo toxicity in C. elegans; parameters: species or system Caenorhabditis elegans; conditions: N2 Bristol, Caenorhabditis elegans, in vivo; 48 h, viability
Experimental: as §1

[7] = tested on: P. falciparum gametocytes; conditions: cited from earlier work
[8] = Cytotoxicity assay in THP-1 (MTT); assay type: cell-based; conditions: human, THP-1 cells, read-out: THP-1 inhibition (CC50)
Experimental: as §2

[9] = Cytotoxicity assay in NCI-H460 (MTT); assay type: cell-based; conditions: human, NCI-H460 cells, read-out: NCI-H460 inhibition (CC50)
Experimental: as §2

CCN(CC)c1ccc(/C=C/c2cc[n+](CCCCCCCCCC[n+]3ccc(/C=C/c4ccc(N(CC)CC)cc4)c(C)c3)cc2C)cc1 [YAT2150]
CC50 at 96 h [1]: 590 ± 160 nM
Microsomal stability (% remaining after 1 h) ([2]; human microsomes, 37 °C): 54.6 ^7%
Microsomal stability T1/2 ([2]; human, microsomes): 80.5 ^7 min
effect on LYWIYY aggregation (TEM) (LYWIYY peptide): significantly abolished after 24 h the formation of LYWIYY amyloid fibrils
Stability in human plasma (% remaining after 1 h) ([3]; 1 h): 100.0 ^7%
Stability in human plasma (% remaining after 2 h) ([3]; 2 h): 99.7 ^7%
Stability in human plasma (% remaining after 6 h) ([3]; 6 h): 91.3 ^7%
CC50 at 96 h [4]: 930 ± 10 nM
inhibition at 30 min, 10 µM (CYP3A4): 35 ± 3%
oocyst number/midgut compared to the control [5]: significantly reduced
prevalence of infection compared to the control [5]: significantly reduced
nematode survival/length assay observation (C. elegans): No worms could be found
IC50 at 48 h [6]: 16200 ± 1400 nM
IC50 ([7]; read-out: in vitro IC50 for P. falciparum gametocyte cultures): ~100 nM
IC50 ([7]; stage I–III (early) gametocytes, read-out: IC50 in P. falciparum stage I–III gametocytes): 95 ± 2 nM
IC50 ([7]; stage V gametocytes, read-out: IC50 in P. falciparum stage V gametocytes (converted)): 103 nM
CC50 at 96 h [8]: 660 ± 10 nM
CC50 at 96 h [9]: 6760 ± 270 nM
